Results from ChEMBL document CHEMBL5518203, “Rational Design of Benzobisheterocycle Metallo-β-Lactamase Inhibitors: A Tricyclic Scaffold Enhances Potency against Target Enzymes” (J Med Chem, 2024).
≈ marks a conversion by molar mass, not a printed value. Calls of active or inactive are those of the source. The calls are words filed in the database; no cut-off is given here.

Assays:
[1] = biological target: Metallo-beta-lactamase type 2 (Bacteria, UniProt C7C422); assay: Inhibition of his6-tagged NDM-1 (unknown origin) expressed in Escherichia coli BL21-DE3 incubated for 16 hrs
Sequence of Metallo-beta-lactamase type 2 (C7C422 whole entry): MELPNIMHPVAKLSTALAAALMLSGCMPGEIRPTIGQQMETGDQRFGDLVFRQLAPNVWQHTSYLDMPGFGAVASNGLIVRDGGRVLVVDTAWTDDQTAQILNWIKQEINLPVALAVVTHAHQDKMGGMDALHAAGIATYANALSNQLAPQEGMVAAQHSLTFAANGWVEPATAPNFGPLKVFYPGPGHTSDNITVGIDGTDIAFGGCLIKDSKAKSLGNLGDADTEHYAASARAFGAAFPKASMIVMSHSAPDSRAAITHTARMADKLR

[2] = Stability in human plasma assessed as half life by HPLC analysis; format: ADME, cell-free
[3] = Inhibition of his6-tagged L1 (unknown origin) expressed in Escherichia coli BL21-DE3 incubated for 16 hrs; design: species or system Enzyme inhibition
[4] = Inhibition of his6-tagged SFH-1 (unknown origin) expressed in Escherichia coli BL21-DE3 incubated for 16 hrs; design: species or system Enzyme
[5] = Inhibition of his6-tagged VIM-2 (unknown origin) expressed in Escherichia coli BL21-DE3 incubated for 16 hrs
[6] = Inhibition of his6-tagged IMP-1 (unknown origin) expressed in Escherichia coli BL21-DE3 incubated for 16 hrs; design: species or system Bacteria
Klebsiella pneumoniae [7] = assay: Potentiation of meropenem induced antibacterial activity against Klebsiella pneumoniae 1.37 expressing NDM-1 assessed as meropenem MIC by CLSI based broth microdilution method; format: functional
Klebsiella pneumoniae [8] = assay: Potentiation of meropenem induced antibacterial activity against Klebsiella pneumoniae 1.41 expressing NDM-1 assessed as meropenem MIC by CLSI based broth microdilution method; format: functional
L929 = assay: Cytotoxicity against mouse L929 cells assessed as reduction in cell viability at 100 microg/ml incubated for 24 hrs by MTT assay; format: toxicity, cell-based; settings: l929, 24 h
Enterobacter cloacae [9] = assay: Potentiation of meropenem induced antibacterial activity against Enterobacter cloacae 6.31 expressing NDM-1 assessed as meropenem MIC by CLSI based broth microdilution method; format: functional
[10] = biological target: Metallo-beta-lactamase type 2 (Bacteria) (UniProt C7C422); assay: Inhibition of full length NDM-1 (unknown origin) expressed in Escherichia DH5alpha at 100 microg/ml measured at 1 to 5 hrs; settings: dose 100.0 µg/ml, time 1-5 hrs
Sequence of Metallo-beta-lactamase type 2 (Bacteria) (C7C422 whole entry): as above

Klebsiella pneumoniae [11] = assay: Potentiation of meropenem induced antibacterial activity against Klebsiella pneumoniae LC82 expressing IMP-13 assessed as meropenem MIC by CLSI based broth microdilution method; format: functional
Enterobacter cloacae [12] = assay: Potentiation of meropenem induced antibacterial activity against Enterobacter cloacae 1.28 expressing NDM-1 assessed as meropenem MIC by CLSI based broth microdilution method; format: functional
Escherichia coli = assay: Potentiation of meropenem induced antibacterial activity against Escherichia coli 3.68 expressing NDM-1 assessed as meropenem MIC by CLSI based broth microdilution method; format: functional
Klebsiella pneumoniae [13] = assay: Potentiation of meropenem induced antibacterial activity against Klebsiella pneumoniae 5639 expressing VIM-24 assessed as meropenem MIC by CLSI based broth microdilution method; format: functional
Klebsiella pneumoniae [14] = assay: Potentiation of meropenem induced antibacterial activity against Klebsiella pneumoniae 6907 expressing VIM-2 assessed as meropenem MIC by CLSI based broth microdilution method; format: functional
Providencia rettgeri [15] = assay: Potentiation of meropenem induced antibacterial activity against Providencia rettgeri 1.27 expressing NDM-1 assessed as meropenem MIC by CLSI based broth microdilution method; format: functional
Klebsiella pneumoniae [16] = assay: Potentiation of meropenem induced antibacterial activity against Klebsiella pneumoniae 7.15 expressing NDM-1 assessed as meropenem MIC by CLSI based broth microdilution method; format: functional
Providencia rettgeri [17] = assay: Antibacterial activity against Providencia rettgeri 1.27 assessed as inhibition of bacterial growth by CLSI based broth microdilution method; format: functional
Klebsiella pneumoniae [18] = assay: Antibacterial activity against Klebsiella pneumoniae 1.37 assessed as inhibition of bacterial growth by CLSI based broth microdilution method; format: functional
Klebsiella pneumoniae [19] = assay: Antibacterial activity against Klebsiella pneumoniae 6907 assessed as inhibition of bacterial growth by CLSI based broth microdilution method; format: functional
Enterobacter cloacae [20] = assay: Antibacterial activity against Enterobacter cloacae 1.28 assessed as inhibition of bacterial growth by CLSI based broth microdilution method; format: functional
Klebsiella pneumoniae [21] = assay: Antibacterial activity against Klebsiella pneumoniae 7.15 assessed as inhibition of bacterial growth by CLSI based broth microdilution method; format: functional
Klebsiella pneumoniae [22] = assay: Antibacterial activity against Klebsiella pneumoniae 5639 assessed as inhibition of bacterial growth by CLSI based broth microdilution method; format: functional
Klebsiella pneumoniae [23] = assay: Antibacterial activity against Klebsiella pneumoniae LC82 assessed as inhibition of bacterial growth by CLSI based broth microdilution method; format: functional
Enterobacter cloacae [24] = assay: Antibacterial activity against Enterobacter cloacae 6.31 assessed as inhibition of bacterial growth by CLSI based broth microdilution method; format: functional
Klebsiella pneumoniae [25] = assay: Antibacterial activity against Klebsiella pneumoniae 1.41 assessed as inhibition of bacterial growth by CLSI based broth microdilution method; format: functional

Row | SMILES | IC50 [1] [µM] | IC50 ([3]; read-out: IC50) [µM] | IC50 ([4]; read-out: IC50) [µM] | IC50 ([5]; read-out: IC50) [µM] | IC50 ([6]; read-out: IC50) [µM] | IC50 [4] | other results
1 | O=C(O)[C@@H]1CS[C@H]2CS[C@H](CS)N21 | 13 | 22 | 0.79 | 8.5 | 17.3 |  | t1/2 [2]: 0.383 h
2 | CCOC(=O)[C@@H]1CS[C@H]2CS[C@H](CS)N21 | 2.7 | 6.9 | 5.5 | 0.17 | 0.26 |  | 
3 | NCCOC(=O)[C@@H]1CS[C@H]2CS[C@H](CS)N21 | 53 | 58 |  |  |  | Not Active | 
4 | CCOC(=O)[C@]12CS[C@H](CS)N1[C@H](C(=O)O)CS2 | 13 |  |  |  |  | Not Active | IC50 [3]: Not Active; IC50 [5]: Not Active; IC50 [6]: Not Active
5 | O=C(NCc1ccccc1)[C@@H]1CS[C@H]2CS[C@H](CS)N21 | 7.7 | 8.9 |  |  |  | Not Active | 
6 | Nc1nc(COC(=O)[C@@H]2CS[C@H]3CS[C@H](CS)N32)cs1 | 27 | 30 |  |  |  | Not Active | 
7 | COc1ccc(CNC(=O)[C@@H]2CS[C@H]3CS[C@H](CS)N32)cc1 | 52 | 24 |  |  |  | Not Active | 
8 | O=C(O)[C@@H]1CS[C@H]2CS[C@H](CCS)N21 | 3.1 | 12 |  |  |  | Not Active | IC50 [5]: Not Active; IC50 [6]: Not Active
9 | O=C(Nc1ccccc1)[C@@H]1CS[C@H]2CS[C@H](CS)N21 | 20 | 15 |  |  |  | Not Active | 
10 | CC(C)(C)OC(=O)NCCOC(=O)[C@@H]1CS[C@H]2CS[C@H](CS)N21 | 7.9 | 5.4 |  |  |  | Not Active | 
11 | Nc1ccccc1NC(=O)[C@@H]1CS[C@H]2CS[C@H](CS)N21 | 29 | 32 |  |  |  | Not Active | 
12 | SCC[C@H]1SC[C@@H]2SCCN21 (racemic) | 8.3 | 7.8 | 55 | 1.2 | 5.8 |  | 
13 | SC[C@H]1SC[C@@H]2SCCN21 (racemic) | 1.2 | 4.9 | 7.5 | 0.88 | 1.09 |  | 
14 | SC[C@H]1SC[C@@H]2Sc3ccccc3N21 (racemic) | 0.29 | 0.67 | 1.4 | 0.063 | 0.088 |  | MIC (Klebsiella pneumoniae [7]): 16 µg/mL; t1/2 [2]: 2.62 h; MIC (Klebsiella pneumoniae [8]): 8 µg/mL; Activity (L929; dose 100 µg/ml): Non-Toxic; MIC (Enterobacter cloacae [9]): 16 µg/mL; inhibition [10]: Active; MIC (Klebsiella pneumoniae [11]): 0.125 µg/mL; MIC (Enterobacter cloacae [12]): 8 µg/mL; MIC (Escherichia coli): 32 µg/mL; MIC (Klebsiella pneumoniae [13]): 0.125 µg/mL; MIC (Klebsiella pneumoniae [14]): 0.125 µg/mL; MIC (Providencia rettgeri [15]): 32 µg/mL; MIC (Klebsiella pneumoniae [16]): 32 µg/mL
15 | SC[C@H]1SC[C@@H]2Nc3ccccc3N21 (relative stereo) |  | 0.62 | 3.7 | 1.4 | 1.01 |  | t1/2 [2]: 2.45 h; Activity (L929; at 100 µg/mL): 20%
16 | C[C@@H](O)[C@H]1C(=O)N2C(C(=O)O)=C(S[C@@H]3CN[C@H](C(=O)N(C)C)C3)[C@H](C)[C@H]12 [MEROPENEM] |  |  |  |  |  |  | MIC (Providencia rettgeri [17]): 128 µg/mL (≈ 334 µM); MIC (Klebsiella pneumoniae [18]): 64 µg/mL (≈ 167 µM); MIC (Klebsiella pneumoniae [19]): 8 µg/mL (≈ 20.9 µM); MIC (Enterobacter cloacae [20]): 128 µg/mL (≈ 334 µM); MIC (Klebsiella pneumoniae [21]): 128 µg/mL (≈ 334 µM); MIC (Klebsiella pneumoniae [22]): 4 µg/mL (≈ 10.4 µM); MIC (Klebsiella pneumoniae [23]): 1 µg/mL (≈ 2.61 µM); MIC (Enterobacter cloacae [24]): 54 µg/mL (≈ 141 µM); MIC (Klebsiella pneumoniae [25]): 128 µg/mL (≈ 334 µM)
